# Source: US8211922B2, “1-methylnicotinamide derivatives and formulations for treatment of lipoprotein abnormalities” (Cortria Corporation, priority 2005, dated 2012)
# How the values were obtained:
# [1] = Toxicity and tolerability
# various cell lines = assay: Cytoprotection of cell lines; type: cell-based
# [2] = Binding to Sepharose immobilized heparin; conditions: as a cationic molecule
# [3] = system: patients on permanent therapy with simvastatin; assay: Safety of co-administration of MNA with statins; type: in vivo, human
# Method: A group of 10 patients (4 females and 6 males, ages 38-79) on permanent therapy with simvastatin (10-20 mg/day) were selected for the study. In addition to simvastatin each patient received MNA in daily dose of 90 mg/day for six weeks. The clinical chemistry parameters were monitored during three doctor's visits: two weeks before, just before and after six weeks of MNA administration.
# apoE/LDLR−/− mice = assay: Mice model of atheroprotection, quantitation of atherosclerosis; type: in vivo; conditions: female apoE/LDLR−/− mice, 100 mg/kg MNA for 2 months, vs placebo; FIG. 2
# Method: Female apoE/LDLR^−/− mice on C57BL/6J background were used for experiments. The experiments were conducted according to the Guidelines for Animal Care and Treatment of the European Communities and were approved by the Local Animal Ethics Committee. apoE/LDLR^−/− mice were fed with standard chow. MNA was given for 2 months (100 mg/kg, 4-6 months old apoE/LDLR^−/− mice) and effects of MNA compared to placebo-treated mice. In each group of mice (control and MNA) n=5.
# Development of atherosclerosis was determined by cross-section (aortic roots), en-face (whole aorta) analysis and quantified semiautomatically, as described before (Jawien et al. Eur J Clin Invest; 2006; 36:141-6). Briefly, the heart and whole aorta were washed by phosphate buffered saline, then the heart and the whole aorta were removed. The heart and ascending aorta were embedded in OCT compound and snap-frozen. Ten micrometer-thick cryosections were cut and after fixation in 4% paraformaldehyde were stained with Meyer's hematoxylin and oil red-O and lesion area was measured semiautomatically in each slide using LSM Image Browser software.
# Chemical stability = type: physicochemical
# [4] = system: patients on permanent therapy with simvastatin or atorvastatin; assay: Long term MNA use in patients on permanent therapy with statins, lipoprotein levels; type: in vivo, human
# Method: A group of 8 patients (5 females and 3 males, ages 59-85) on permanent therapy with simvastatin or atorvastatin (10-20 mg/day) were selected for the study. MNA in a daily dose of 90-180 mg was co-administrated for a period of 3 to 42 months. The liporotein levels for each patient were monitored in every 1 to 3 months. […] The changes varied from patient to patient within a limit −5% to −42%. The appropriate changes in LDL were within −12% to +17% and in HDL within −6% to +37%.
# dyslipidemic patients = assay: Anti-atherogenic effect of MNA after a single administration, plasma lipids; type: in vivo, human; conditions: for HDL % / TG % / TG/HDL % / Total Cholesterol %: change vs time 0; for TG: person
# Method: The anti-atherogenic effect of NINA after single administration was also investigated in dyslipidemic patients. The patient was treated with 100 mg MNA. The plasma levels of TC, TG, and HDL were measured at baseline and after 1 and 3 hours. The level of LDL was not measured due to high TG level. […] The increase of the HDL (24.8 vs. 29.0 mg/dl) was observed after the administration. The significant reduction of TG/HDL ratio (24.0 vs. 16.5) was observed.
# PGI2 = PGI2 release
# [5] = system: rats fed a hypertriglyceridemic diet; assay: Rat model of hypertriglyceridemia (high-fructose diet), plasma triglyceride; type: in vivo; conditions: Wistar rats, AIN93 diet with 60% fructose 8 weeks; 100 mg/kg MNA in drinking water for the last 4 weeks; FIG. 1
# Method: Rats fed a high-fructose diet develop hypertriglyceridemia, insulin resistance and a mild degree of hypertension abnormalities that mimic metabolic syndrome in humans (Boehm and Claudi-Boehm, Scand J Clin Lab Invest Suppl. 2005; 240:3-13). […] One group was fed a control diet (basal AIN93) for 8 weeks, the second was fed an AIN93 diet supplemented with 60% fructose for 8 weeks, and the third was fed an AIN93 diet supplemented with 60% fructose that was additionally treated with 100 mg/kg of MNA for the last 4 weeks (after hypertriglicerydemia fully develops) and was given to drinking water. At the end of experiments rats were anesthetized, and blood was withdrawn and anticoagulated. Triglyceride level in plasma was measured by standard spectophotometric technique using commercially available kits.
# [6] = MNA 90 mg/day for six weeks co-administered with simvastatin (10-20 mg/day), 10 patients
substance,measurement,setting,value
1-methylnicotinamide chloride [MNA],Tolerability,[1],very well tolerated
same,Toxicity,[1],non-toxic
same,Cytoprotection,various cell lines,cytoprotective
same,Binding to Sepharose immobilized heparin,[2],bound
same,"Clinical chemistry parameters (liver enzymes AST and ALT, creatinine, urea, glucose and homocysteine)",[3]; [6],not changed within the measurements accuracy
same,Negative effects on patient examination,[3]; [6],no negative effects were observed
same,Adverse synergistic effects,[3]; MNA co-administration with statins,does not result in any adverse synergistic effects
same,Atherosclerosis progression (lesion area),apoE/LDLR−/− mice,slows atherosclerosis progression
same,Chemical stability,Chemical stability,chemically very stable
same,HDL,"[4]; co-administration with statin, patients with a low starting HDL level (<40 mg/dl)",particularly remarkable increase
same,Triglyceride (TG) level,"[4]; long term co-administration of MNA with simvastatin or atorvastatin, in general",reduction
same,Negative side effects,[4]; long term co-administration of MNA with statins,Neither patients nor doctors involved with this study have declared any negative side effects
same,TG/HDL ratio,dyslipidemic patients; after the administration of 100 mg MNA (base-line 24.0),16.5
same,HDL,dyslipidemic patients; after the administration of 100 mg MNA (base-line 24.8),29.0 mg/dL
same,TG level,dyslipidemic patients; after the administration of 100 mg MNA (base-line 596),479 mg/dL
same,HDL %,"dyslipidemic patients; single 100 mg MNA, 1 h",2.82%
same,TG %,"dyslipidemic patients; single 100 mg MNA, 1 h",−5.03%
same,TG/HDL %,"dyslipidemic patients; single 100 mg MNA, 1 h",−7.64%
same,Total Cholesterol %,"dyslipidemic patients; single 100 mg MNA, 1 h",1.08%
same,HDL %,"dyslipidemic patients; single 100 mg MNA, 3 h",16.94%
same,TG %,"dyslipidemic patients; single 100 mg MNA, 3 h",-19.63%
same,TG/HDL %,"dyslipidemic patients; single 100 mg MNA, 3 h",−31.27%
same,Total Cholesterol %,"dyslipidemic patients; single 100 mg MNA, 3 h",4.84%
same,TG,"dyslipidemic patients; single 100 mg MNA, 1 h",566 mg/dL
same,TG,"dyslipidemic patients; single 100 mg MNA, 3 h",479 mg/dL
same,HDL,"dyslipidemic patients; single 100 mg MNA, 1 h",25.5 mg/dL
same,TG/HDL,"dyslipidemic patients; single 100 mg MNA, 1 h",22.20
same,Total Cholesterol,"dyslipidemic patients; single 100 mg MNA, 1 h",188 mg/dL
same,HDL,"dyslipidemic patients; single 100 mg MNA, 3 h",29.0 mg/dL
same,TG/HDL,"dyslipidemic patients; single 100 mg MNA, 3 h",16.52
same,Total Cholesterol,"dyslipidemic patients; single 100 mg MNA, 3 h",195 mg/dL
same,PGI2 release,PGI2,releases PGI2
same,Triglyceride level in plasma,[5],lowers triglyceride levels
